# Tests used:
# velvetleaf = test: Test A pre-/postemergence herbicide test; assay type: in vivo, Abutilon theophrasti
# How it was run: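 Visual injury rating on a 0–100 scale (0 no effect, 100 complete control) versus untreated controls, about ten days after treatment in greenhouse. Pre: directed soil spray onto seeded sandy loam. Post: spray to runoff on plants 2–10 cm tall at one- to two-leaf stage.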
# Surinam grass = test: Test C pre-/postemergence herbicide test; assay type: in vivo, Urochloa decumbens; conditions: for Surinam Grass plant response rating: 500 g ai/ha
# How it was run: (§1)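 Pre- and postemergence application, solvent/surfactant formulation; post at 1- to 4-leaf stage (2–18 cm). Greenhouse 12–14 d. Visual rating vs controls, 0 = no effect, 100 = complete control.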
# corn = test: Test C pre-/postemergence herbicide test; assay type: in vivo, Zea mays
# How it was run: as §1
# giant foxtail = test: Test C pre-/postemergence herbicide test; assay type: in vivo, Setaria faberi; conditions: for Foxtail, Giant plant response rating: 500 g ai/ha
# How it was run: as §1
# kochia = test: Test C pre-/postemergence herbicide test; assay type: in vivo, Kochia scoparia; conditions: for Kochia plant response rating: 500 g ai/ha
# How it was run: as §1
# morningglory = test: Test C pre-/postemergence herbicide test; assay type: in vivo, Ipomoea coccinea; set-up: key to Plant response rating, Morningglory: 0 = no effect, 100 = complete control; conditions: for Morningglory plant response rating: 500 g ai/ha
# How it was run: as §1
# common ragweed = test: Test C pre-/postemergence herbicide test; assay type: in vivo, Ambrosia elatior; set-up: key to Plant response rating, Ragweed: 0 = no effect, 100 = complete control; conditions: for Ragweed plant response rating: 500 g ai/ha
# How it was run: as §1
# soybean = test: Test C pre-/postemergence herbicide test; assay type: in vivo, Glycine max; conditions: for Soybean plant response rating: 500 g ai/ha
# How it was run: as §1
# rice = test: Test C flooded paddy test; assay type: in vivo, Oryza sativa; conditions: for Plant response rating, Rice: visual rating after 12 to 14 days
# How it was run: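 Postemergence sprays applied to plants 2 to 18 cm tall (1- to 4-leaf stage); paddy species grown to 2-leaf stage under flooding. After 12 to 14 days in greenhouse, visual rating versus untreated controls on 0–100 scale (0 no effect, 100 complete control).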
# [1] = test system: smallflower umbrella sedge; test: Test C flooded paddy test; assay type: in vivo, Cyperus difformis; conditions: for Plant response rating, Sedge, Umbrella: visual rating after 12 to 14 days
# barnyardgrass = test: Test C flooded paddy test; assay type: in vivo, Echinochloa crus-galli; conditions: for Plant response rating, Barnyardgrass: visual rating after 12 to 14 days
# How it was run: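 After a postemergence application at 1 to 4 leaves (plants 2–18 cm high), or at 2 leaves for barnyardgrass in flooded paddy, plants stayed in the greenhouse for 12 to 14 days. Damage was then judged visually relative to control plants, with 100 indicating complete control.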
# [2] = 250 g ai/ha, scale 0 to 100 (0 no effect, 100 complete control), visual, 12 to 14 days, preemergence
# [3] = Postemergence, 250 g ai/ha, scale 0 to 100, 0 no effect, 100 complete control
# [4] = Preemergence, scale 0 to 100, 0 no effect, 100 complete control
# [5] = postemergence, 125 g ai/ha, scale 0 to 100
# [6] = postemergence, 62 g ai/ha, scale 0 to 100
# [7] = 125 g ai/ha, scale 0-100, preemergence
# [8] = Postemergence, 125 g ai/ha, scale 0 to 100, 0 no effect, 100 complete control
# [9] = 62 g ai/ha, scale 0 to 100 (0 no effect, 100 complete control)
# [10] = 125 g ai/ha, scale of 0 to 100, 0 is no effect, 100 is complete control
# [11] = 250 g ai/ha, scale 0 to 100 (0 no effect, 100 complete control)
# [12] = 500 g ai/ha, scale 0 to 100 (0 no effect, 100 complete control)
compound,measurement,setting,value
CCNC(=O)c1cccc(NC(=O)c2cc(C(C)(C)C)nn2CC(F)(F)F)c1 [Compound 31],Velvetleaf plant response rating,"velvetleaf; Postemergence, 250 g ai/ha, 0 to 100 scale, 0 no effect, 100 complete control",20
same,"Plant response rating, Velvetleaf","velvetleaf; Postemergence, 1000 g ai/ha, 0 to 100 scale, 0 no effect, 100 complete control",30
same,Velvetleaf plant response rating,"velvetleaf; Preemergence, 1000 g ai/ha, visual rating, 0 to 100 scale (0 no effect, 100 complete control)",35
same,Velvetleaf plant response rating,"velvetleaf; preemergence, 250 g ai/ha, visual injury, 0 to 100 scale (0 no effect, 100 complete control)",10
same,"Plant response rating (0 = no effect, 100 = complete control), Surinam Grass","Surinam grass; 62 g ai/ha, preemergence",10
same,"Plant response rating, Surinam Grass",Surinam grass; [2],30
same,Surinam Grass plant response rating,"Surinam grass; Postemergence, scale 0 to 100",50
same,"Plant response rating, Surinam Grass",Surinam grass; [3],50
same,Surinam Grass plant response rating,Surinam grass; [4],60
same,"Plant response rating, Surinam Grass",Surinam grass; [5],40
same,"Plant response rating, Surinam Grass",Surinam grass; [6],30
same,"Plant response rating (0 = no effect, 100 = complete control), Corn","corn; 62 g ai/ha, preemergence",0
same,"Plant response rating, Corn",corn; [7],20
same,Corn plant response rating,"corn; Postemergence, 500 g ai/ha, scale 0 to 100",50
same,"Plant response rating, Corn",corn; [8],40
same,"Plant response rating, Corn",corn; [3],40
same,"Plant response rating, Corn",corn; [6],40
same,"Plant response rating (0 = no effect, 100 = complete control), Foxtail, Giant","giant foxtail; 62 g ai/ha, preemergence",20
same,"Plant response rating, Foxtail, Giant",giant foxtail; [7],30
same,"Plant response rating, Foxtail, Giant",giant foxtail; [2],70
same,"Foxtail, Giant plant response rating","giant foxtail; Postemergence, scale 0 to 100",40
same,"Plant response rating, Foxtail, Giant",giant foxtail; [8],30
same,"Plant response rating, Foxtail, Giant",giant foxtail; [3],30
same,"Foxtail, Giant plant response rating",giant foxtail; [4],100
same,"Plant response rating, Foxtail, Giant",giant foxtail; [6],20
same,"Plant response rating (0 = no effect, 100 = complete control), Kochia","kochia; 62 g ai/ha, preemergence",0
same,"Plant response rating, Kochia",kochia; [7],80
same,"Plant response rating, Kochia",kochia; [2],100
same,Kochia plant response rating,"kochia; Postemergence, scale 0 to 100",70
same,"Plant response rating, Kochia",kochia; [8],70
same,"Plant response rating, Kochia",kochia; [3],70
same,Kochia plant response rating,kochia; [4],100
same,"Plant response rating, Kochia",kochia; [6],70
same,Morningglory plant response rating,"morningglory; Postemergence, scale 0 to 100",70
same,"Plant response rating, Morningglory",morningglory; [3],60
same,Morningglory plant response rating,morningglory; [4],40
same,"Plant response rating, Morningglory",morningglory; [5],50
same,"Plant response rating, Morningglory",morningglory; [6],50
same,"Plant response rating (0 = no effect, 100 = complete control), Ragweed","common ragweed; 62 g ai/ha, preemergence",0
same,"Plant response rating, Ragweed",common ragweed; [2],60
same,Ragweed plant response rating,"common ragweed; Postemergence, scale 0 to 100",70
same,"Plant response rating, Ragweed",common ragweed; [3],40
same,Ragweed plant response rating,common ragweed; [4],80
same,"Plant response rating, Ragweed",common ragweed; [5],40
same,"Plant response rating, Ragweed",common ragweed; [6],30
same,"Plant response rating (0 = no effect, 100 = complete control), Soybean","soybean; 62 g ai/ha, preemergence",0
same,"Plant response rating, Soybean",soybean; [2],10
same,Soybean plant response rating,"soybean; Postemergence, scale 0 to 100",80
same,"Plant response rating, Soybean",soybean; [3],70
same,Soybean plant response rating,soybean; [4],20
same,"Plant response rating, Soybean",soybean; [5],50
same,"Plant response rating, Soybean",soybean; [6],30
same,Rice plant response rating,rice; [9],0
same,Rice plant response rating,rice; [10],10
same,"Plant response rating, Rice",rice; [11],40
same,"Plant response rating, Rice",rice; [12],50
same,"Sedge, Umbrella plant response rating",[1]; [9],0
same,"Sedge, Umbrella plant response rating",[1]; [10],35
same,"Plant response rating, Sedge, Umbrella",[1]; [11],40
same,"Plant response rating, Sedge, Umbrella",[1]; [12],55
same,Barnyardgrass plant response rating,barnyardgrass; [9],0
same,Barnyardgrass plant response rating,barnyardgrass; [10],30
same,"Plant response rating, Barnyardgrass",barnyardgrass; [11],70
same,"Plant response rating, Barnyardgrass",barnyardgrass; [12],75
